Data published in EPA's ToxValDB 9.5 (doi:10.2903/j.efsa.2008.140r).
Converted amounts (≈) assume the structure as drawn.

Assays:
Canidae = settings: chronic; duration: 1 years; oral; Dog Other; clinical signs
Colinus virginianus = settings: acute; oral; mortality
Daphnia magna = settings: chronic/long-term; duration: 21 days; reproduction
Rattus norvegicus = settings: for NOAEL: chronic
Typhlodromus pyri = settings: not reported; other

## CCN(CC)C(=O)C(C)Oc1cccc2ccccc12 (stereo unspecified) [Napropamide]
Canidae
  NOAEL: 50 mg/kg-day
Colinus virginianus
  LD50: > 2250 mg/kg-day
Daphnia magna
  NOEC: 4.3 mg/L
Oncorhynchus mykiss; acute, duration: 96 hours, mortality
  LC50: 6.6 µg/mL (≈ 24.3 µM)
Oncorhynchus mykiss; chronic/long-term, duration: 28 days, growth
  NOEC: 1.1 mg/L
Rattus norvegicus; acute, mortality
  LD50: 4680 mg/kg-day
Rattus norvegicus; duration: 2 years, oral, body weight
  NOAEL: 30 mg/kg-day
Rattus norvegicus; mortality
  NOAEL: 30 mg/kg-day
Tagia sp.; acute, duration: 14 days, mortality
  LC50: 564 mg/kg
Tagia sp.; chronic/long-term, reproduction
  NOEC: 60 mg/kg
Typhlodromus pyri
  LEL: 4500 g/ha
